The values that follow come from patent publication US20030045524A1, “Alpha-2-adrenergic agonist/fatty acid compositions” (priority 2001, published 2003).

Read-outs that look alike come from different tables or passages of the source.

The subject of one series is Intra Ocular Pressure. The note with it: ion pair formulation of 0.131% bromonidine and 0.126% linoleic acid. The text has this: The complex is an ion pair formulation of 0.131% bromonidine and 0.126% linoleic acid.
Series [1] deals with Rabbit Intraocular Pressure. To be noted: 0.2% complex; for INTRAOCULAR PRESSURE: mean, n=8. The procedure:
In this study, the animals were placed into three groups consisting of a mix of age, size and sex.
One group of animals (both sexes) was used per screening study. The test compound (20 L of 0.2% bromonidine-linoleic acid ion pair complex) was administered to the surface of the cornea using an automatic pipette or an appropriate device.
The following general procedure for administering the test compound employed in this study is presented below:
1. Make sure that the 0.25% proparacaine Opthetic5 mixture (topical local anesthetic), test compounds, and commercially available treats are available.
2. Turn on the Digilab Modular One J Pneuma Tonometer (pneumatonometer) [BioRad, Cambridge, Mass.]; it needs approximately 15 minutes to warm up. Turn on gas supply or air pump.
3. Hold probe vertically with the point tip down and press “calibration check” for “zero”.
4. Wipe the pneumatonometer probe with an alcohol swab, and inspect the tip membrane for holes.
5. Set the external calibration device (air or water manometer) to 25 mm Hg, place the pneumatonometer probe in the calibration device to ensure that it corresponded to 25 2 mm Hg.
6. Obtain a rabbit. Make sure the recording data sheets are at hand.
7. Gently restrain the rabbit via a commercial restrainer or a cotton towel. Measure the pupil diameter with the specialized ruler for each eye and record the values on the sheets provided. If the eyes are too dark to obtain a value by this method, a specialized penlight may be used. Obtain a pupil diameter measurement by shining the penlight on the cornea for one second.
8. Slide the upper eyelid up with the thumb and visually assess and score the degree of ocular surface redness. Record the value for each eye on the sheet provided.
9. Put one drop of 0.25% proparacaine Opthetic5 (50:50 mix of 0.5% proparacaine Opthetic5+Cellufresh5) on the surface of each eye. Wait one or more minutes for ophthetic to take effect.
10. Place the pnematonometer tip on one eye at the site where the curvature of the cornea is greatest. Let the probe shank travel to the black line, not the red line. Persist until a stable reading with the standard deviation below 1.0 is obtained. Repeat the procedure for the contralateral eye. Record the data. (Note: If the animal is upset by the restraint, the reading will be artificially high and cannot be used. Use gentle restraint).
11. At the end of the 0, 6, 24, 30, 48, 54, 72, 78 and 96 hour measurements, use an automatic pipette to apply 20 L of the test compound to the surface of the cornea of one eye. After the 102 hour measurements, the eyes will be washed out with Refresh5 and Prefrin5.
12. Give the animal a treat and return the animal to its cage.
13. Repeat steps 7 to 11 on the remaining animals in the group.
The following general procedure for measuring the effects of the test compound employed in this study is as follows: a reading is conducted at 0, 2, 4, 6, 24, 26, 28, 30, 48, 50, 52, 54, 72, 74, 76, 78, 96, 98, 100, and 102 hours. The pneumatonometer is calibrated before use with a manometer and the probe tip is wiped with an alcohol swab. One drop of 0.25% proparacaine Opthetic5, a corneal anesthetic, is placed on the cornea. Allow sufficient time (approximately 1 minute) for it to anesthetize the cornea before placing the probe on the eye. The eye is gently opened by the person doing the tonometer reading. The probe is placed on the cornea at the point of greatest curvature and a stable reading is obtained. The probe is held parallel to the floor and perpendicular to the line of the rabbit's sight. The reading is repeated until a reasonable reading can be obtained. The piston should be between the red and black lines or at the black line on the probe.
Values are mean S.E.M. n=8.

The test system of the next series is monkeys. To be noted: average of 6 monkeys, 0.2%, scale S=0 to 4. On the procedure: The relative sedative effects of bromonidine-linoleic acid (compound 65) were compared to saline (compound 62) and brimonidine tartrate (compound 60). This study involved cross overs and a one-week wash out in between the administration of the various compounds.
As done in a previous experiment, the following method was followed:
1. 6 trained monkeys were placed in chairs and allowed to acclimate for approximately 30 minutes.
2. Individual monkeys were brought into the “testing room” where they were allowed to adjust to the new environment for approximately 2 minutes. […] Sedation scores were recorded on an observation sheet.
3. The monkey was returned to the group of animals assigned to this study.
4. 2 baseline readings were done at T−0.5 and 0 hour. After the 0 hour reading one drop of the test compound was administered to the right eye.
5. Steps 2 & 3 were repeated at T=0.5, 1, 2, 3 and 4 hour.
6. Animals were monitored until they recover from effects of the drug.
5. Scoring of Sedation was based on the following scale:
S=0 Monkey is quiet, but slightly active.
S=1 Monkey is quiet, easy to handle for reading
S=2 Monkey is quiet, relaxed but very low in activity
S=3 Monkey is blinking eyes and yawning
8. The test compounds were coded: 62-Saline, […].
9. Test Compound Administration:
The scoring was conducted for each animal for the different test compounds. The average results are shown on table 1.

As for `Brc1c(NC2=NCCN2)ccc2nccnc12.CCCCC/C=C\C/C=C\CCCCCCCC(=O)O`, the “percent change of Intra Ocular Pressure” value with Intra Ocular Pressure (1 hr after administration at time 0) is recorded as −10.4%; in the series on Intra Ocular Pressure (2 hr after administration at time 0), −16.0%; in the series with Intra Ocular Pressure (4 hr after administration at time 0), −09.5%; in the series with Intra Ocular Pressure (6 hr after administration at time 0), −09.4%. The “time for which intraocular pressure in a rabbit's eye is reduced” value in series [1] (after administration) is “at least 6 hours”. In series [1] (after administration at time 6 hr), the “duration of the effect of the complex on intraocular pressure” value is recorded as “less than 18 hrs”. Besides, the “INTRAOCULAR PRESSURE” value was 25.8 mmHg in series [1] (time 0 hr (initial, dosed after reading)); 17.1 mmHg in series [1] (time 2 hr); 21.1 mmHg in series [1] (time 4 hr); 23.9 mmHg in series [1] (time 6 hr (dosed after reading)); 25.6 mmHg in series [1] (time 24 hr (dosed after reading)); 19.9 mmHg in series [1] (time 26 hr). Besides, the “INTRAOCULAR PRESSURE” value in series [1] (time 28 hr) came to 22.9 mmHg; in series [1] (time 30 hr (dosed after reading)), 23.0 mmHg; in series [1] (time 48 hr (dosed after reading)) it was 26.5 mmHg; in series [1] (time 50 hr) it was 20.4 mmHg; in series [1] (time 52 hr), 23.4 mmHg; in series [1] (time 54 hr (dosed after reading)) it was 24.1 mmHg. The “INTRAOCULAR PRESSURE” value in series [1] (time 72 hr (dosed after reading)) turned out to be 26.8 mmHg; in series [1] (time 74 hr), 21.1 mmHg; in series [1] (time 76 hr), 23.9 mmHg; in series [1] (time 78 hr (dosed after reading)), 25.2 mmHg; in series [1] (time 96 hr (dosed after reading)), 27.9 mmHg; in series [1] (time 98 hr) it was 20.1 mmHg. In addition, the “INTRAOCULAR PRESSURE” value came out at 23.9 mmHg in series [1] (time 100 hr) and 25.3 mmHg in series [1] (time 102 hr).

On to “brimonidine tartrate [reference compound]”, for which the “SEDATION SCORE” value in the series on monkeys (time 0 hr (baseline, before dosing)) was found to be 0.8; in the series with monkeys (time 0.5 hr after one drop to right eye), 0.8; in the series on monkeys (time 1 hr after one drop to right eye) it was 1.7; with monkeys (time 2 hr after one drop to right eye), 2.6; with monkeys (time 3 hr after one drop to right eye), 2.5; in the series on monkeys (time 4 hr after one drop to right eye), 2.7. Further, the “SEDATION SCORE” value with monkeys (time −0.5 hr (baseline, before dosing)) is on record as 0.7.
